Experiments:
Assay type in all cases: cell-based
Sialidase-3 [1] = target: T1, Sialidase-3 (Homo sapiens, UniProt Q9UQ49); assay: Inhibition of human NEU3 expressed in HEK293 cells by fluorometric high-performance liquid chromatography using ganglioside GM3 substrate
T1 sequence (Q9UQ49 whole entry): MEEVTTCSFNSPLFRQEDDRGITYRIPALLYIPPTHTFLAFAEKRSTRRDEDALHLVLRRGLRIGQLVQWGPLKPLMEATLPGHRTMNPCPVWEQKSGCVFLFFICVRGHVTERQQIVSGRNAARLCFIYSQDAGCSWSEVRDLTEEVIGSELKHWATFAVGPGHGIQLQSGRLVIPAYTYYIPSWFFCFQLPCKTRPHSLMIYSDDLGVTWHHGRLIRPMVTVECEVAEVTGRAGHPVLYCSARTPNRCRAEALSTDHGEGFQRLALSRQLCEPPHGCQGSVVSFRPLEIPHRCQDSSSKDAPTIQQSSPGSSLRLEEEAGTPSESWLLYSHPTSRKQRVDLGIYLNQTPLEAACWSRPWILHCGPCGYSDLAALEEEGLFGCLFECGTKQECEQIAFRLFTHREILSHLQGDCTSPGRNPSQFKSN

Sialidase-3 [2] = target: T1, Sialidase-3; assay: Inhibition of human NEU3 expressed in HEK293 cells by fluorometric high-performance liquid chromatography using 4MU-NeuAc substrate
Sialidase-1 = Sialidase-1 (Homo sapiens, UniProt Q99519); assay: Inhibition of human NEU1 expressed in HEK293 cells by fluorometric high-performance liquid chromatography using 4MU-NeuAc substrate
Sialidase-4 = target: T2, Sialidase-4 (Homo sapiens, UniProt Q8WWR8); assay: Inhibition of human NEU4 expressed in HEK293 cells by fluorometric high-performance liquid chromatography using 4MU-NeuAc substrate
T2 sequence (Q8WWR8 whole entry): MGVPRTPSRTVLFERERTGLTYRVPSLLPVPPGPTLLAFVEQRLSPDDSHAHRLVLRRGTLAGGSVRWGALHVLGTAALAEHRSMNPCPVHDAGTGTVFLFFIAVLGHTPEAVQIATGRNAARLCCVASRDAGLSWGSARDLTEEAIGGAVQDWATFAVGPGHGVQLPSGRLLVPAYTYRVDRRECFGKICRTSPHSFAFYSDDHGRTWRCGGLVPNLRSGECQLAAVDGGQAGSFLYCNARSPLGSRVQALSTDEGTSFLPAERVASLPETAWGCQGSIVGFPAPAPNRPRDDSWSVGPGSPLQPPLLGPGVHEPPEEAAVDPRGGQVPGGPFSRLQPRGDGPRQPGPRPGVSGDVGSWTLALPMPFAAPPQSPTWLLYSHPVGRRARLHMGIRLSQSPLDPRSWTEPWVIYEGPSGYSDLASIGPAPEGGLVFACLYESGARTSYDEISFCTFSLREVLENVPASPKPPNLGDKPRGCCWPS

IC50 (Sialidase-3 [1])	IC50 (Sialidase-3 [2])	IC50 (Sialidase-1)	IC50 (Sialidase-4)	Structure (SMILES)
70.3 µM				CC(=O)N[C@H]1[C@H]([C@H](O)[C@H](O)CO)OC(C(=O)O)=C[C@@H]1O [NEU5AC2EN]
	> 10000 µM	> 10000 µM	> 10000 µM	CCOC(=O)C1=C[C@@H](OC(CC)CC)[C@H](NC(C)=O)[C@@H](N)C1 [OSELTAMIVIR]
		2710 µM		CC(=O)N[C@H]1[C@H]([C@H](O)[C@H](O)CO)OC(C(=O)O)=C[C@@H]1N=C(N)N [ZANAMIVIR]
